The record followed here is US6653306B1, “Epoxy-steroidal aldosterone antagonist and angiotensin II antagonist combination therapy” (G.D. Searle & Co., priority 1995, dated 2003).

Assay [1] has as its target angiotensin II AT1 receptor. In words: Assay A: Angiotensin II binding activity (125I-AII displacement, rat uterine membrane preparation). How it is done:
Assay A: Antiotensin II Binding Activity
Compounds of the invention were tested for ability to bind to the smooth muscle angiotensin II receptor using a rat uterine membrane preparation. […] Rat uterine membranes were prepared from fresh tissue. All procedures were carried out at 4° C. Uteri were stripped of fat and homogenized in phosphate-buffered saline at pH 7.4 containing 5 mM EDTA. The homogenate was centrifuged at 1500×g for 20 min., and the supernatant was recentrifuged at 100,000×g for 60 min. The pellet was resuspended in buffer consisting of 2 mM EDTA and 50 mM Tris-HCl (pH 7.5) to a final protein concentration of 4 mg/ml. […] The reaction was initiated by the addition of membrane protein and the mixture was incubated at 25° C. for 60 min. The incubation was terminated with ice-cold 50 mM Tris-HCl (pH 7.5) and the mixture was filtered to separate membrane-bound labelled peptide from the free ligand. The incubation tube and filter were washed with ice-cold buffer. Filters were assayed for radioactivity in a Micromedic gamma counter.
Nonspecific binding was defined as binding in the presence of 10 μM of unlabelled AII. Specific binding was calculated as total binding minus nonspecific binding. […] Binding data were analyzed by a nonlinear least-squares curve fitting program.

For a further assay, the system named is pressor response to AII. In words: Assay C: In vivo intragastric pressor assay response for AII antagonists. Conditions: intragastric, or intraduodenal for examples listed; for inhibition at 3 mg/kg: Rattus norvegicus; for inhibition at 3 mg/kg / Assay C Duration: dose 3 mg/kg. Also noted: species or system rat. How it is done: Assay C: In Vivo Intragastric Pressor Assay Response for AII Antagonists
Male Sprague-Dawley rats weighing 225-300 grams were anesthetized with methohexital (30 mg/kg, i.p.) and catheters were implanted into the femoral artery and vein. The catheters were tunneled subcutaneously to exit dorsally, posterior to the head and between the scapulae. The catheters were filled with heparin (1000 units/ml of saline). The rats were returned to their cage and allowed regular rat chow and water ad libitum. After full recovery from surgery (3-4 days), rats were placed in Lucite holders and the arterial line was connected to a pressure transducer. Arterial pressure was recorded on a Gould polygraph (mmHg). Angiotensin II was administered as a 30 ng/kg bolus via the venous catheter delivered in a 50 μl volume with a 0.2 ml saline flush. The pressor response in mm Hg was measured by the differer.-:e from pre-injection arterial pressure to the maximum pressure achieved. The AII injection was repeated every 10 minutes until three consecutive injections yielded responses within 4 mmHg of each other. These three responses were then averaged and represented the control response to AII. The test compound was suspended in 0.5% methylcellulose in water and was administered by gavage. The volume administered was 2 ml/kg body weight. The standard dose was 3 mg/kg. Angiotensin II bolus injections were given at 30, 45, 60, 75, 120, 150, and 180 minutes after gavage. The pressor response to AII was measured at each time point. The rats were then returned to their cage for future testing. A minimum of 3 days was allowed between tests. Percent inhibition was calculated for each time point following gavage by the following formula:
[(Control Response—Response at time point)/Control Response]×100.

The structures appear in SMILES notation.

In assay [1], `CCCCc1cn(-c2ccccc2CC)c(=O)n1Cc1ccc(-c2ccccc2-c2nnn[nH]2)nc1` [Compound 228] displayed an IC50 of 0.0045 µM. For the same compound, in the assay with pressor response to AII, 3 mg/kg produced 80% inhibition and the “Assay C Duration” value was more than 180 min.
Take `CCCCc1nc(CC(C)(C)C)n(Cc2ccc(-c3ccccc3-c3nnn[nH]3)nc2)n1` [Compound 250]: the IC50 in assay [1] was determined as 0.043 µM. In the assay with pressor response to AII, 3 mg/kg produced 0% inhibition.
In the case of `CCCCn1nc(C(O)CCC)nc1Cc1ccc(-c2ccccc2-c2nnn[nH]2)nc1` (stereo not drawn) [Compound 159], the IC50 in assay [1] was 0.021 µM. In addition, in the assay with pressor response to AII, the inhibition at 3 mg/kg stood at 10% and the “Assay C Duration” value came to 150 min.
For `CCCCc1cn(-c2ccccc2C(C)C)c(=O)n1Cc1ccc(-c2ccccc2-c2nnn[nH]2)cc1` [Compound 272], in that order: 0.097 µM, 70% and more than 180 min.
With `CCCCc1cn(-c2c(Cl)cccc2Cl)c(=O)n1Cc1ccc(-c2ccccc2-c2nnn[nH]2)nc1` [Compound 221], the IC50 in assay [1] came to 0.0048 µM. In the assay with pressor response to AII, 3 mg/kg produced 25% inhibition and the “Assay C Duration” value was more than 180 min.
With `CCCCc1cn(CCCC)c(=O)n1Cc1ccc(-c2ccccc2-c2nnn[nH]2)cn1` [Compound 223], the IC50 in assay [1] turned out to be 0.014 µM. Also, in the assay with pressor response to AII, the inhibition at 3 mg/kg was found to be 20% and the “Assay C Duration” value is more than 180 min.
As for `CCCCc1cn(-c2ccccc2CC)c(=O)n1Cc1ccc(-c2ccccc2-c2nnn[nH]2)cc1` [Compound 271], the IC50 in assay [1] amounted to 0.014 µM. In addition, the inhibition at 3 mg/kg with pressor response to AII worked out at 20%.
In turn, `CCCCc1cn(-c2c(OC)cccc2OC)c(=O)n1Cc1ccc(-c2ccccc2-c2nnn[nH]2)nc1` [Compound 230] had an IC50 in assay [1] of 0.0026 µM. Further, in the assay with pressor response to AII, 3 mg/kg produced 25% inhibition and the “Assay C Duration” value is more than 180 min.
`CCCCn1nc(C(=O)N(C)C(C)(C)C)nc1Cc1ccc(-c2ccccc2-c2nnn[nH]2)nc1` [Compound 171] returned an IC50 in assay [1] of 0.028 µM. For the same compound, in the assay with pressor response to AII, at 3 mg/kg the inhibition was 0% and the “Assay C Duration” value was 0 min.
In assay [1], `CCCCc1cn(CCC(C)(C)C)c(=O)n1Cc1ccc(-c2ccccc2-c2nnn[nH]2)nc1` [Compound 203] gave an IC50 of 0.0092 µM. Moreover, in the assay with pressor response to AII, at 3 mg/kg the inhibition was 50% and the “Assay C Duration” value was more than 180 min.
In assay [1], `CCCCc1nc(C(=O)N(C)C(C)(C)C)n(Cc2ccc(-c3ccccc3-c3nnn[nH]3)nc2)n1` [Compound 256] registered an IC50 of 0.0041 µM. Also, in the assay on pressor response to AII, the inhibition at 3 mg/kg amounted to 30% and the “Assay C Duration” value is more than 180 min.
For `CCCCn1nc(C(OC)OC)nc1Cc1ccc(-c2ccccc2-c2nnn[nH]2)nc1` [Compound 175], in that order: 0.027 µM, 0% and 0 min.
In assay [1], `CCCCc1cn(C2CCCCC2)c(=O)n1Cc1ccc(-c2ccccc2-c2nnn[nH]2)nc1` [Compound 205] yielded an IC50 of 0.02 µM. In the assay on pressor response to AII, at 3 mg/kg the inhibition was 40% and the “Assay C Duration” value was more than 180 min.
Regarding `CCCCc1cn([C@H]2[C@H](C)CCC[C@@H]2C)c(=O)n1Cc1ccc(-c2ccccc2-c2nnn[nH]2)nc1` [Compound 236], the IC50 in assay [1] amounted to 0.0049 µM. For the same compound, in the assay with pressor response to AII, the inhibition at 3 mg/kg stood at 70% and the “Assay C Duration” value was more than 180 min.
`CCCCc1cn(-c2c(C)cc(C)cc2C)c(=O)n1Cc1ccc(-c2ccccc2-c2nnn[nH]2)nc1` [Compound 232] showed an IC50 in assay [1] of 0.0044 µM. In the assay on pressor response to AII, the inhibition at 3 mg/kg is 70% and the “Assay C Duration” value is more than 180 min.
On to `CCCCc1cn(-c2ccccc2C(C)(C)C)c(=O)n1Cc1ccc(-c2ccccc2-c2nnn[nH]2)nc1` [Compound 229], for which, in assay [1], the IC50 stood at 0.019 µM. In the assay on pressor response to AII, at 3 mg/kg the inhibition was 40% and the “Assay C Duration” value is more than 180 min.
In assay [1], `CCCCc1cn(CCC2=CCCC2)c(=O)n1Cc1ccc(-c2ccccc2-c2nnn[nH]2)nc1` [Compound 212] returned an IC50 of 0.023 µM. In the assay with pressor response to AII, at 3 mg/kg the inhibition was 15% and the “Assay C Duration” value amounted to 180 min.
`CCCCc1cn(CCC2CCCC2)c(=O)n1Cc1ccc(-c2ccccc2-c2nnn[nH]2)nc1` [Compound 211] showed an IC50 in assay [1] of 0.018 µM. In addition, in the assay with pressor response to AII, at 3 mg/kg the inhibition was 35% and the “Assay C Duration” value was more than 180 min.
In assay [1], `CCCCn1nc(C(F)(F)CCC)nc1Cc1ccc(-c2ccccc2-c2nnn[nH]2)nc1` [Compound 170] registered an IC50 of 0.026 µM. In addition, in the assay on pressor response to AII, the inhibition at 3 mg/kg was found to be 40% and the “Assay C Duration” value is more than 180 min.
For `CCCCc1cn(CC(CC)CC)c(=O)n1Cc1ccc(-c2ccccc2-c2nnn[nH]2)nc1` [Compound 204], in that order: 0.016 µM, 75% and more than 180 min.
Compound `CCCCc1cn(C(C)(C)C)c(=O)n1Cc1ccc(-c2ccccc2-c2nnn[nH]2)nc1` [Compound 201] had an IC50 in assay [1] of 0.017 µM. In the assay with pressor response to AII, the inhibition at 3 mg/kg worked out at 10% and the “Assay C Duration” value came to 180 min.
Take `CCCCc1cn(C(C)C)c(=O)n1Cc1ccc(-c2ccccc2-c2nnn[nH]2)nc1` [Compound 200]: the IC50 in assay [1] was 0.02 µM. Moreover, in the assay on pressor response to AII, at 3 mg/kg the inhibition was 45% and the “Assay C Duration” value was more than 180 min.
For `CCCCn1cc(CCC2CC2)n(Cc2ccc(-c3ccccc3-c3nnn[nH]3)nc2)c1=O` [Compound 193], in that order: 0.011 µM, 10% and 180 min.
For `CCCCc1nc(-c2ccccc2Cl)nn1Cc1ccc(-c2ccccc2-c2nnn[nH]2)nc1` [Compound 267], in that order: 0.025 µM, 25% and more than 180 min.
Compound `CCCCn1nc(C2OCCCO2)nc1Cc1ccc(-c2ccccc2-c2nnn[nH]2)nc1` [Compound 180] gave an IC50 in assay [1] of 0.02 µM. For the same compound, in the assay with pressor response to AII, the inhibition at 3 mg/kg amounted to 25% and the “Assay C Duration” value worked out at 180 min.
For the compound `CCCCc1nn(CC(=O)c2ccccc2)c(=O)n1Cc1ccc(-c2ccccc2-c2nn[nH]n2)cc1` [Compound 82], in assay [1], the IC50 worked out at 0.0079 µM. For the same compound, the “Assay C Inhibition” value in the assay with pressor response to AII (dose cell empty (dose not given)) amounted to 20%.
For the compound `CCCCCc1cn(CCCC)c(=O)n1Cc1ccc(-c2ccccc2-c2nnn[nH]2)nc1` [Compound 190], the IC50 in assay [1] was determined as 0.01 µM. In the assay on pressor response to AII, the inhibition at 3 mg/kg amounted to 10% and the “Assay C Duration” value worked out at 180 min.
Compound `CCCCc1cn(CCc2ccccc2)c(=O)n1Cc1ccc(-c2ccccc2-c2nnn[nH]2)nc1` [Compound 210] displayed an IC50 in assay [1] of 0.0036 µM. Also, in the assay on pressor response to AII, 3 mg/kg produced 15% inhibition and the “Assay C Duration” value amounted to 180 min.
For `CCCCn1nc(CCc2cccs2)nc1Cc1ccc(-c2ccccc2-c2nnn[nH]2)nc1` [Compound 153], the IC50 in assay [1] is 0.013 µM. In the assay with pressor response to AII, the inhibition at 3 mg/kg was 25% and the “Assay C Duration” value is more than 180 min.
`CCCCc1cn(CCc2cccs2)c(=O)n1Cc1ccc(-c2ccccc2-c2nnn[nH]2)nc1` [Compound 209] returned an IC50 in assay [1] of 0.005 µM. Besides, in the assay with pressor response to AII, the inhibition at 3 mg/kg stood at 25% and the “Assay C Duration” value was more than 180 min.
Compound `CCCCc1cn(CCC(C)C)c(=O)n1Cc1ccc(-c2ccccc2-c2nnn[nH]2)nc1` [Compound 198] returned an IC50 in assay [1] of 0.0076 µM. In addition, in the assay with pressor response to AII, the inhibition at 3 mg/kg stood at 35% and the “Assay C Duration” value was more than 180 min.
Turning to `CCCCc1cn(-c2ccccc2C)c(=O)n1Cc1ccc(-c2ccccc2-c2nnn[nH]2)nc1` [Compound 217], the half-maximal inhibitory concentration (IC50) in assay [1] amounted to 0.0094 µM. In the assay on pressor response to AII, the inhibition at 3 mg/kg was determined as 65% and the “Assay C Duration” value is more than 180 min.
